According to patent US20230165836A1, “ALPHA-2 ADRENERGIC RECEPTOR AGONISTS FOR THE TREATMENT OF CANCER” (UNIVERSITÉ CATHOLIQUE DE LOUVAIN, priority 2020, published 2023):
“Also recorded” adds a separate entry of the source.

How the values were obtained:
[1] = test system: fibrosarcoma; assay: Tumor model: fibrosarcoma; type: in vivo, mice; conditions: fibrosarcoma (FIG. 22H, 23H)
From the text: (§1) FIGS. 23A-H is a set of curves showing the tumor growth of mice treated with PBS (Control, circles) or guanabenz (GBZ, triangles) in different tumor models: such as mammary gland tumor (FIG. 23A), hepatocellular carcinoma (FIG. 23B), T cell lymphoma (FIG. 23C), lung cancer (FIG. 23D), myeloma (FIG. 23E), mammary adenocarcinoma (FIG. 23F), renal cancer (FIG. 23G) and fibrosarcoma (FIG. 23H).

[2] = test system: B16F1 melanoma; assay: B16F1 melanoma in immune competent mice; type: in vivo; conditions: B16F1 in immune competent C57BL/6 mice; 5 mg/kg, i.p.; monotherapy
Description: FIGS. 10A-B is a set of curves showing the tumor growth of B16F1 melanoma in C57BL/6J (FIG. 10A) or immunodeficient NSG mice (FIG. 10B) treated with PBS (Control, curve 1) or clonidine (5 mg/kg, i.p., curve 2).
FIGS. 11A-B is a set of curves showing the tumor growth of B16F1 melanoma in C57BL/6J (FIG. 11A) or NSG mice (FIG. 11B) treated with PBS (Control, curve 1) or guanfacine (5 mg/kg, i.p., curve 2).

[3] = test system: MC38 colon carcinomas; assay: MC38 colon carcinoma in wildtype mice; type: in vivo, C57BL/6 Wildtype mice; conditions: 5 mg/kg, i.p. daily from tumor size around 50 mm^3
Description: (§2) C57BL/6 Wildtype or C57BL/6 Adra2a KO mice bearing MC38 colon carcinomas received daily injections of vehicle control (PBS), clonidine (5 mg/kg, i.p.) or guanabenz (5 mg/kg, i.p.), when the tumor size was around 50 mm^3, until the day of sacrifice.

[4] = test system: CT26 colon cancer; assay: CT26 colon cancer tumor growth (FIGS. 15-16); type: in vivo, C57BL/6J mice; conditions: CT26 colon cancer, FIGS. 15A, 16A
From the text: Tumor infiltration of CD8+cells evaluated at the day of sacrifice by FACS (FIG. 15B). Tumor growth of CT26 colon cancer in NSG mice treated with PBS (Control), clonidine, clonidine mixed with yohimbine, or yohimbine alone (FIG. 15C). FIGS. 16A-C is a set of curves and histograms showing the tumor growth of CT26 colon cancer in C57BL/6J mice treated with PBS (Control, circles), guanabenz (diamonds), guanabenz mixed with yohimbine (light grey inverted triangles), or yohimbine alone (dark grey inverted triangles) (FIG. 16A); the tumor infiltration of CD8+ cells evaluated at the day of sacrifice by FACS (FIG. 16B); and the tumor growth of CT26 colon cancer in NSG mice treated with PBS (Control), guanabenz, guanabenz mixed with yohimbine, or yohimbine alone (FIG. 16C). […] For evaluation of yohimbine on the effect of clonidine and guanabenz, the mice were randomized into different groups when tumors size arrived around 100 mm^3 and received daily injections of guanabenz (5 mg/kg, i.p.), yohimbine (10 mg/kg), a mix of guanabenz (5 mg/kg, i.p.) and yohimbine (10 mg/kg, i.p.), clonidine (5 mg/kg, i.p.), a mix of clonidine (5 mg/kg, i.p.) and yohimbine (10 mg/kg, i.p.) or vehicle control.

[5] = test system: CT26 colon carcinomas; assay: CT26 colon carcinoma model, daily i.p. treatment, tumor volume; type: in vivo, BALB/c mice; conditions: CT26 in BALB/c mice; 5 mg/kg, i.p. daily from tumor size around 50 mm^3 until sacrifice
Description: Mice received a daily intra-peritoneal injection of guanabenz (5 mg/kg) or vehicle (PBS) from the day of randomization (and the day of ACT when applicable) until the day of sacrifice. For the co-administration of adrenergic receptor agonist and antagonist, BALB/c mice bearing CT26 colon carcinomas received daily injections of vehicle control, guanabenz (5 mg/kg, i.p.), or guanabenz (5 mg/kg, i.p.) plus yohimbine (10 mg/kg, i.p.), when the tumor size was around 50 mm^3, until the day of sacrifice.
[…] mice were injected subcutaneously with 2×10^6 CT26 colon tumor cells at an age of 6 to 8 weeks. […] For evaluation of yohimbine on the effect of clonidine and guanabenz, the mice were randomized into different groups when tumors size arrived around 100 mm^3 and received daily injections of guanabenz (5 mg/kg, i.p.), yohimbine (10 mg/kg), a mix of guanabenz (5 mg/kg, i.p.) and yohimbine (10 mg/kg, i.p.), clonidine (5 mg/kg, i.p.), a mix of clonidine (5 mg/kg, i.p.) and yohimbine (10 mg/kg, i.p.) or vehicle control. Tumor size was measured every 2 days and mice were sacrificed when the tumor in control group reached 1,000 mm^3.

[6] = test system: human LS411N ovarian cancer; assay: LS411N xenograft with adoptive transfer of allogeneic human PBMC; type: in vivo; conditions: human allogenic PBMC transferred at tumor size 100 mm^3
Description: Adoptive transfer of human PBMC was performed when tumor size reaches 100 mm^3.

[7] = test system: JAK2V617F allele burden; assay: Myelofibrosis by JAK2V617F bone marrow transplantation, allele burden; type: in vivo, C57BL/6 mice; conditions: 5 mg/kg i.p. daily; Day 7 versus Day 0
Description: Bone marrow from primary CD45.2 JAK2V617F mice was mixed 1:1 with CD45.1 C57BL/6 marrow and transplanted into lethally irradiated CD45.2 C57BL/6 recipients. 1 month after bone marrow transplantation, mice were randomized into three groups and received daily i.p injection of 5 mg/kg of clonidine, guanabenz or PBS. Blood was taken on Day 0 (Just before the treatment) and on Day 7 (7 days after the treatment). The allele burden was assessed as a fraction of CD45.2 cells along total CD45 cells in the blood of mice.
Decreased JAK2V617F allele burden is a golden standard method to evaluate the disease progression of MF.

[8] = test system: lung cancer; assay: Tumor model: lung cancer; type: in vivo, mice; conditions: lung cancer (FIG. 22D, 23D)
From the text: as §1

[9] = test system: MC38 colon carcinomas; assay: MC38 colon carcinoma in Adra2a KO mice; type: in vivo, C57BL/6 Adra2a KO mice; conditions: 5 mg/kg, i.p. daily from tumor size around 50 mm^3
Description: as §2

[10] = test system: JAK2V617F mutated bone marrow; assay: Myelofibrosis by JAK2V617F bone marrow transplantation, platelet counts; type: in vivo, mice; conditions: 5 mg/kg daily for three weeks
Description: Murine femurs and tibias from JAK2V617F mutant mice were first harvested and cleaned thoroughly. Marrow cells were flushed into PBS with 2% fetal bovine serum using a 25G needle and syringe. Resulting cell suspensions were then filtered through a 40 uM cell strainer. Recipient mice were irradiated with two doses of 500 rad 4 h apart. 1 million of donor cells were injected into wild-type recipients by standard intravenous injection using a 27G insulin syringe. One week after bone marrow transplantation, mice were treated with guanabenz or clonidine at a dose of 5 mg/kg daily for three weeks. After three weeks of treatment, mice were dissected and peripheral blood was drawn by cardiac puncture, the platelet concentration was measured by Cell Counter Analyzer MS9-5V.

[11] = test system: T cell lymphoma; assay: Tumor model: T cell lymphoma; type: in vivo, mice; conditions: T cell lymphoma (FIG. 22C, 23C)
From the text: as §1

Clc1cccc(Cl)c1N=C1NCCN1 [clonidine]
tumor growth [1]: strong tumor inhibition
tumor growth [2]: inhibited tumor growth
tumor growth [3]: significant tumor inhibition
tumor growth [4]: inhibited CT26 colon cancer tumor growth
tumor growth (tumor volume) [5]: promotes a decrease of the tumor volume; also recorded: strongly inhibited CT26 tumor growth
tumor growth [6]: significant tumor inhibition
JAK2V617F allele burden (CD45.2 cells among total CD45 cells in blood) [7]: decrease of JAK2V617F allele burden in a number of mice
tumor growth [8]: strong tumor inhibition
tumor inhibition in Adra2a KO mice [9]: almost completely attenuated
platelet (PLT) counts [10]: significantly reduces the platelet (PLT) counts; also recorded: significantly reduced the high platelet counts
tumor growth [11]: strong tumor inhibition
